Among the data in paper PMC6010121, “Structural re-positioning, in silico molecular modelling, oxidative degradation, and biological screening of linagliptin as adenosine 3 receptor (ADORA3) modulators targeting hepatocellular carcinoma” (Journal of Enzyme Inhibition and Medicinal Chemistry, 2018) are Ki values, retold here.

The experiment deals with T1, adenosine 3 receptor (ADORA3) (Homo sapiens, UniProt P0DMS8).
T1 construct: recombinant human ADORA3 (Abcam)
T1 sequence (P0DMS8 1-318): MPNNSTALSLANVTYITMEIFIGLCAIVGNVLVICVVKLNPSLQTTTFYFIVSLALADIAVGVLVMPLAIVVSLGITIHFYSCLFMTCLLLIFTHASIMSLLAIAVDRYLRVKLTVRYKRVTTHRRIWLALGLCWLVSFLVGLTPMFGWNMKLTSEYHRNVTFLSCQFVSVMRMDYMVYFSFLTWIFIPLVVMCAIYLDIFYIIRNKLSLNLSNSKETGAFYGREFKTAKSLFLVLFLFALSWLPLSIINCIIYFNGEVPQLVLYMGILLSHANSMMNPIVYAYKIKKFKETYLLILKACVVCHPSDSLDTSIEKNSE
Briefly: ELISA-based binding inhibition with recombinant human ADORA3 on anti-ADORA3 antibody-coated wells; Ki calculated from IC50 ([…]).

For `CC#CCn1c(N2CCC[C@@H](N)C2)nc2c1c(=O)n(Cc1nc(C)c3ccccc3n1)c(=O)n2C` [LIN, linagliptin], the Ki (commonly a dissociation constant, usually derived from enzyme kinetics or from competition with a known ligand) was 37.7 nM.
